Legend:
Assay in all cases: relative viability (nuclei count vs DMSO), 5 days (fraction); higher = more cells survive
Etoposide + Linsitinib = compound: COc1cc([C@@H]2c3cc4c(cc3[C@@H](O[C@@H]3O[C@@H]5CO[C@@H](C)O[C@H]5[C@H](O)[C@H]3O)[C@H]3COC(=O)[C@H]23)OCO4)cc(OC)c1O [Etoposide] + C[C@]1(O)C[C@@H](c2nc(-c3ccc4ccc(-c5ccccc5)nc4c3)c3c(N)nccn32)C1 [Linsitinib] (partner 1 µM)
Procedure, shortened: (§1)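 Relative viability was taken as the ratio of nuclei in treated wells to nuclei in vehicle wells. Lung cancer cell lines in 1536-well plates received compounds by pin tool one day after seeding, either one drug alone or a fixed anchor-drug dose plus five library-drug doses (not always all listed) in √10 steps. Nuclei were counted on 4× images after 5 days of treatment, and values are medians of duplicate plates.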

Bleomycin + Alpelisib = compound: CC1=C(N=C(N=C1N)[C@H](CC(=O)N)NC[C@@H](C(=O)N)N)C(=O)N[C@@H]([C@H](C2=CN=CN2)OC3C(C(C(C(O3)CO)O)O)OC4C(C(C(C(O4)CO)O)OC(=O)N)O)C(=O)N[C@H](C)[C@H]([C@H](C)C(=O)N[C@@H]([C@@H](C)O)C(=O)NCCC5=NC(=CS5)C6=NC(=CS6)C(=O)NCCC[S+](C)C)O [Bleomycin] + Cc1nc(NC(=O)N2CCC[C@H]2C(N)=O)sc1-c1ccnc(C(C)(C)C(F)(F)F)c1 [Alpelisib] (partner 2 µM); settings: main component drawn
Procedure, shortened: as §1

Bleomycin + Olaparib = compound: CC1=C(N=C(N=C1N)[C@H](CC(=O)N)NC[C@@H](C(=O)N)N)C(=O)N[C@@H]([C@H](C2=CN=CN2)OC3C(C(C(C(O3)CO)O)O)OC4C(C(C(C(O4)CO)O)OC(=O)N)O)C(=O)N[C@H](C)[C@H]([C@H](C)C(=O)N[C@@H]([C@@H](C)O)C(=O)NCCC5=NC(=CS5)C6=NC(=CS6)C(=O)NCCC[S+](C)C)O [Bleomycin] + O=C(c1cc(Cc2n[nH]c(=O)c3ccccc23)ccc1F)N1CCN(C(=O)C2CC2)CC1 [Olaparib] (partner 8 µM); settings: main component drawn
Procedure, shortened: as §1

Etoposide + Bortezomib = compound: COc1cc([C@@H]2c3cc4c(cc3[C@@H](O[C@@H]3O[C@@H]5CO[C@@H](C)O[C@H]5[C@H](O)[C@H]3O)[C@H]3COC(=O)[C@H]23)OCO4)cc(OC)c1O [Etoposide] + CC(C)C[C@H](NC(=O)[C@H](Cc1ccccc1)NC(=O)c1cnccn1)B(O)O [Bortezomib] (partner 0.002 µM)
Procedure, shortened: as §1

| Cell Line | relative viability (Etoposide + Linsitinib; first compound 0.01 µM) | relative viability (Etoposide + Linsitinib; first compound 0.03162 µM) | relative viability (Etoposide + Linsitinib; first compound 0.1 µM) | relative viability (Etoposide + Linsitinib; first compound 0.3162 µM) | relative viability (Etoposide + Linsitinib; first compound 1 µM) | relative viability (Bleomycin + Alpelisib; first compound 0.01 µM) | relative viability (Bleomycin + Alpelisib; first compound 0.03162 µM) | relative viability (Bleomycin + Alpelisib; first compound 0.1 µM) | relative viability (Bleomycin + Alpelisib; first compound 0.3162 µM) | relative viability (Bleomycin + Alpelisib; first compound 1 µM) | relative viability (Bleomycin + Olaparib; first compound 0.01 µM) | relative viability (Bleomycin + Olaparib; first compound 0.03162 µM) | relative viability (Bleomycin + Olaparib; first compound 0.1 µM) | relative viability (Bleomycin + Olaparib; first compound 0.3162 µM) | relative viability (Bleomycin + Olaparib; first compound 1 µM) | relative viability (Etoposide + Bortezomib; first compound 0.01 µM) | relative viability (Etoposide + Bortezomib; first compound 0.03162 µM) | relative viability (Etoposide + Bortezomib; first compound 0.1 µM) | relative viability (Etoposide + Bortezomib; first compound 0.3162 µM) | relative viability (Etoposide + Bortezomib; first compound 1 µM) |
| --- | --- | --- | --- | --- | --- | --- | --- | --- | --- | --- | --- | --- | --- | --- | --- | --- | --- | --- | --- | --- |
| A-427 | 1.17 | 1.16 | 0.815 | 0.841 | 0.243 | 0.983 | 1.05 | 1.05 | 0.48 | 0.203 | 0.58 | 0.566 | 0.455 | 0.274 | 0.24 | 0.92 | 1.02 | 0.726 | 0.819 | 0.244 |
| NCI-H1792 | 0.405 | 0.331 | 0.261 | 0.418 | 0.289 | 0.631 | 0.61 | 0.623 | 0.228 | 0.221 | 0.34 | 0.447 | 0.487 | 0.183 | 0.11 | 0.899 | 0.878 | 0.819 | 0.897 | 0.581 |
| LCLC-97TM1 | – | 0.193 | 0.122 | 0.151 | 0.1 | 0.162 | 0.186 | 0.134 | 0.127 | 0.101 | 0.211 | 0.258 | 0.148 | 0.0871 | 0.0615 | 0.865 | 0.329 | 0.485 | 0.132 | 0.0671 |
| ChaGo-K-1 | – | – | – | – | – | – | – | – | – | – | 0.361 | 0.411 | 0.348 | 0.28 | 0.229 | 1.16 | 0.94 | 0.679 | 0.337 | 0.282 |
| NCI-H358 | 0.622 | 0.792 | 0.561 | 0.202 | 0.181 | 0.889 | 0.799 | 0.712 | 0.481 | 0.349 | 0.475 | 0.713 | 0.657 | 0.294 | 0.227 | – | – | – | – | – |
| NCI-H1944 | 1.45 | 1.33 | 0.844 | 0.733 | 0.392 | 0.627 | 0.518 | 0.506 | 0.288 | 0.179 | 0.259 | 0.252 | 0.264 | 0.18 | 0.151 | – | – | – | – | – |
| NCI-H2342 | – | – | – | – | – | – | – | – | – | – | 0.377 | 0.4 | 0.416 | 0.319 | 0.362 | – | – | – | – | – |
| NCI-H522 | – | – | – | – | – | – | – | – | – | – | 0.498 | 0.627 | 0.625 | 0.404 | 0.333 | – | – | – | – | – |
| SK-MES-1 | 1.05 | 1.07 | 0.862 | 0.612 | 0.262 | 0.731 | 0.531 | 0.59 | 0.315 | 0.185 | 0.528 | 0.493 | 0.439 | 0.169 | 0.153 | – | – | – | – | – |
| NCI-H2170 | – | – | – | – | – | 0.775 | 0.815 | 0.792 | 0.58 | 0.552 | 0.508 | 0.523 | 0.397 | 0.361 | 0.3 | – | – | – | – | – |
| NCI-H1793 | 0.692 | 0.989 | – | 0.716 | 0.429 | 0.695 | 0.783 | 0.612 | 0.171 | 0.176 | 0.845 | 0.675 | 0.589 | 0.191 | 0.195 | – | – | – | – | – |

From the supplement of paper PMC10307832
